How the values were obtained:
[1] = Inhibition of CDK1/Cyclin B by Flashplate assay; design: species or system Homo sapiens
[2] = target: Vascular endothelial growth factor receptor 2 (Homo sapiens, UniProt P35968); assay: Inhibition of VEGFR2
Chain of Vascular endothelial growth factor receptor 2 (P35968 whole entry): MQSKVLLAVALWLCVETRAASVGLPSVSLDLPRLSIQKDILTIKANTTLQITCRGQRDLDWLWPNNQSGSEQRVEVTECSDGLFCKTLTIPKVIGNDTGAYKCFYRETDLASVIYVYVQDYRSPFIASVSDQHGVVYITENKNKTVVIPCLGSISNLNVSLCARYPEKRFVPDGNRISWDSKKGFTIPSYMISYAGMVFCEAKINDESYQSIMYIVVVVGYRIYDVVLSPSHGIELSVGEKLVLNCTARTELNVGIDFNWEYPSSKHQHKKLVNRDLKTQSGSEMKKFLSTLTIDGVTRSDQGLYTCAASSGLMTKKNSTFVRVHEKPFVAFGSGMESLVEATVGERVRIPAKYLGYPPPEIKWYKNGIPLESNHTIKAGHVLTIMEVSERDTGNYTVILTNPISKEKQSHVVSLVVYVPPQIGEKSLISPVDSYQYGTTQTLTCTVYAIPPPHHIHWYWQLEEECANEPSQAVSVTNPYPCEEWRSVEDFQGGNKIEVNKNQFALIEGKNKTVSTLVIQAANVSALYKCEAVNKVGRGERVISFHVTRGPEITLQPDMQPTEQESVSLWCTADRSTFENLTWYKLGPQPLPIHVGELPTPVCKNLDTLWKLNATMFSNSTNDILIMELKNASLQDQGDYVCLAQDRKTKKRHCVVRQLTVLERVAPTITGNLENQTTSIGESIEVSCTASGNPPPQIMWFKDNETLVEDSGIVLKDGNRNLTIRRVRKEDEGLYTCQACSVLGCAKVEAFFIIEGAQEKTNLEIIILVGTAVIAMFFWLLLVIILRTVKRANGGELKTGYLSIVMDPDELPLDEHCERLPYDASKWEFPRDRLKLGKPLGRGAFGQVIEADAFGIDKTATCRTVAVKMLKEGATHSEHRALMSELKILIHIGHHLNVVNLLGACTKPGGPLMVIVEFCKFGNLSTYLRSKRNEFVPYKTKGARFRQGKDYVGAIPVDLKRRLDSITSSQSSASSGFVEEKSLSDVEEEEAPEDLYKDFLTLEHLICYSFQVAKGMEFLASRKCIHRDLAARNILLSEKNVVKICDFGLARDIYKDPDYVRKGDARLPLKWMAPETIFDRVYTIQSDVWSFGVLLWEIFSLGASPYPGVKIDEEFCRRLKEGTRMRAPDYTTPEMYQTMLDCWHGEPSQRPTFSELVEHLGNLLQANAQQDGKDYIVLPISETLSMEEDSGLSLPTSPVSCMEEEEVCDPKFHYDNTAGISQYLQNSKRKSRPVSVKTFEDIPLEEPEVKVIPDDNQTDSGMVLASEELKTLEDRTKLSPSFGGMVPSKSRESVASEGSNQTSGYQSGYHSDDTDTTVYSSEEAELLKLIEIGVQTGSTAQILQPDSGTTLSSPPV

- IC50 [1]: 23 nM
- IC50 [2]: 1460 nM
Structure (SMILES): c1ccc2c(-c3cnc4[nH]nc(-c5nc6ccccc6[nH]5)c4c3)cncc2c1

Reference: ChEMBL document CHEMBL1148847, “Synthesis of 3-(1H-benzimidazol-2-yl)-5-isoquinolin-4-ylpyrazolo[1,2-b]pyridine, a potent cyclin dependent kinase 1 (CDK1) inhibitor” (Bioorg Med Chem Lett, 2007)
